Test results as given in US7879876B2, “Sulfonamide derivatives and use thereof for the modulation of metalloproteinases” (Merck Serono SA, priority 2005, dated 2011).

Experiments:
Format in all cases: biochemical
MMP-14 = MMP-14 (Homo sapiens, UniProt P50281); test: MMP-14 enzyme inhibition assay (coumarin-labelled peptide substrate); conditions: for inhibition at 0.1 µM / inhibition at 5 µM: read-out: percentage inhibition MMP14; for IC50: read-out: IC50 MMP14
Protocol: (§1) Compounds of the invention were tested to assess their activities as inhibitors of MMP-1, MMP-2, MMP-9, MMP-14, MMP-12 and TACE. MMP-9 Assay Protocol
(§2) Compounds of the invention were tested for inhibitory activity against 92 kDa gelatinase (MMP-9) in an assay using a coumarin-labeled peptide substrate, (7-methoxycoumarin-4-yl)acetyl-Pro-Leu-Gly-Leu-(3-[2,4-dinitrophenyl]-L-2,3diaminopropionyl)-Ala-Arg-NH2 (McaPLGLDpaAR) (Knight et al, FEBS Lett. 1992; 263-266).
(§3) Stock solutions were made up as follows: Assay Butter: 100 mM Tris-HCl pH 7.6 containing 100 mM NaCl, 10 mM CaCl2, and 0.05% Brij 35.
(§4) Substrate: 0.4 mM McaPLGLDpaAR (from Bachem) (0.437 mg/ml) stock solution in 100% DMSO (stored at −20° C.). Dilute to 8 μM in assay butter.
(§5) Enzyme: Recombinant human 92 kDa gelatinase (MMP-9; APMA (4-aminophenyl mercuric acetate)-activated if necessary) appropriately diluted in assay butter.
(§6) Test Compounds were prepared initially as 10 mM compound solution in 100% DMSO, diluted to 1 mM in 100% DMSO, then serially diluted 3-fold in 100% DMSO across columns 1-10 of a 96-well microtitre plate Assay concentration range, 100 μM (column 1) to 5.1 nM (column 10).
(§7) The assay was performed in a total volume of 100 μL per well in 96-well microtitre plates. Activated enzyme (20 μL) was added to the wells followed by 20 μL of assay butter. Appropriate concentrations of test compounds dissolved in 10 μL of DMSO were then added followed by 50 μL of McaPLGLDpaAR (8 μM, prepared by dilution of DMSO stock in assay butter). For each as say ten concentrations of test compound were examined in duplicate. Control wells lack either enzyme or test compound. The reactions were incubated at 37° C. for 2 hours. The fluorescence at 405 nm was measured immediately with an SLT Fluostar fluorometer (SL T Labinstruments GmbH, Grödig, Austria) using 320 nm excitation, without stopping the reaction.
(§8) The effect of the test compound was determined from the dose response curve generated by the 10 duplicate concentrations of inhibitor. The IC50 (the concentration of compound required to give a 50% decrease in enzyme activity) was obtained by fitting data to the equation, Y=a+((b−a)/(1+(c/X)^d)). (Y=inhibition achieved for a particular dose; X=the dose in nM; a=minimum y or zero % inhibition; b=maximum y or 100% inhibition; c=is the IC50; d=is the slope). The result was rounded to one significant figure.
(§9) Compounds of the invention were tested for inhibitory activity against MMP-14 in an assay using a coumarin-labelled peptide substrate, (7-methoxycoumarin-4-yl)acetyl-Pro-Leu-Gly-Leu-(3-[2,4-dinitrophenyl]-L-2,3diaminopropionyl)-Ala-Arg-NH2 (Mca PLGLD paAR) (Knight et al, 1992, above). The protocol for this assay was as described for the MMP-9 assay above.

metalloelastase (MMP-12) = metalloelastase (MMP-12) (Homo sapiens, UniProt P39900); test: MMP-12 enzyme inhibition assay (coumarin-labelled peptide substrate); conditions: read-out: IC50 MMP12
Protocol: as §1, §2, §3, §4, §5, §6, §7, §8
Compounds of the invention were tested for inhibitory activity against metalloelastase (MMP-12) in an assay using a coumarin-labelled peptide substrate, (7-methoxycoumarin-4-yl)acetyl-Pro-Leu-Gly-Leu-(3-[2,4-dinitrophenyl]-L-2,3-diaminopropionyl)-Ala-Arg-NH2 (McaPLGLDpaAR) (Knight et al, 1992, above). The protocol for this assay was as described for the MMP-9 assay above.

[1] = molecular target: 92 kDa gelatinase (MMP-9) (Homo sapiens, UniProt P14780); test: MMP-9 enzyme inhibition assay (coumarin-labeled peptide substrate); conditions: for IC50: read-out: IC50 MMP9
Protocol: as §1, §2, §3, §4, §5, §6, §7, §8

gelatinase A (MMP-2) = molecular target: T1, gelatinase A (MMP-2) (Homo sapiens, UniProt P08253); test: MMP-2 enzyme inhibition assay (coumarin-labelled peptide substrate); conditions: read-out: IC50 MMP2
T1 sequence (P08253 110-660): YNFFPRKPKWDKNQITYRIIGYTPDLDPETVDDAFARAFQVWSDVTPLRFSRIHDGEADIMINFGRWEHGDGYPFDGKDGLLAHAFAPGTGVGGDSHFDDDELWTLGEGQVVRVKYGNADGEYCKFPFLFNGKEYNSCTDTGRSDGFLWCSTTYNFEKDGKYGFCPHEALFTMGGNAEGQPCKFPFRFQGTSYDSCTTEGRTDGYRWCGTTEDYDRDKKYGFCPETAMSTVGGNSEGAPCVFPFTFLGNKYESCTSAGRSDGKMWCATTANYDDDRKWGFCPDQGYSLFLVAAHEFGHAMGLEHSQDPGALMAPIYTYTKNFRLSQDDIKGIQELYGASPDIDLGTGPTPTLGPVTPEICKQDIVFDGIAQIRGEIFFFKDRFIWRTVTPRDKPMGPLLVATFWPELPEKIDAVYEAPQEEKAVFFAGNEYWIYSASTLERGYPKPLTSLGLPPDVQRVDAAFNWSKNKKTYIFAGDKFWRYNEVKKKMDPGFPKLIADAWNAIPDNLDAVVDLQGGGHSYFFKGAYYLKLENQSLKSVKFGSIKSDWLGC
Protocol: Compounds of the invention were tested to assess their activities as inhibitors of MMP-1, MMP-2, MMP-9, MMP-14, MMP-12 and TACE. MMP-9 Assay Protocol […]
as §3
Substrate: 0.4 mM McaPLGLDpaAR (from Bachem) (0.437 mg/ml) stock solution in 100% DMSO (stored at −20° C.). Dilute to 8 μM in assay butter. […]
as §6, §7, §8
as §9, with “gelatinase A (MMP-2)” for “MMP-14”, “PLGLDpaAR)” for “PLGLD paAR)”

Sequence of 92 kDa gelatinase (MMP-9) (P14780 107-707 limits assumed): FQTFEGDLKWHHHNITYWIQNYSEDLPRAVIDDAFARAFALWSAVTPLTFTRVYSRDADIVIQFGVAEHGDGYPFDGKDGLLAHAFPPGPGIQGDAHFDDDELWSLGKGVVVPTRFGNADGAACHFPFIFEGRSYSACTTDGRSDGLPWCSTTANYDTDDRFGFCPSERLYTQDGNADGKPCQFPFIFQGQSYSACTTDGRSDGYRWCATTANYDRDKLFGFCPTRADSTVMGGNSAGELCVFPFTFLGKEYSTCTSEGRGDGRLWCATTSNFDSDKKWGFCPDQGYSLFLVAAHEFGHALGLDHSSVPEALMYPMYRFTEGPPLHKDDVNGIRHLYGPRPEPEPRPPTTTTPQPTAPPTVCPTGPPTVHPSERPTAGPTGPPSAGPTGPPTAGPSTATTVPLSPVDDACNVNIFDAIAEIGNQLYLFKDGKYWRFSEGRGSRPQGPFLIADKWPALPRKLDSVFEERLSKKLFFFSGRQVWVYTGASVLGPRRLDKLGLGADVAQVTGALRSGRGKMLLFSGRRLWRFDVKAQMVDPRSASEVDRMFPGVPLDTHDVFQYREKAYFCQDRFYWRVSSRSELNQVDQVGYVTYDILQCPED
Sequence of metalloelastase (MMP-12) (P39900 106-470): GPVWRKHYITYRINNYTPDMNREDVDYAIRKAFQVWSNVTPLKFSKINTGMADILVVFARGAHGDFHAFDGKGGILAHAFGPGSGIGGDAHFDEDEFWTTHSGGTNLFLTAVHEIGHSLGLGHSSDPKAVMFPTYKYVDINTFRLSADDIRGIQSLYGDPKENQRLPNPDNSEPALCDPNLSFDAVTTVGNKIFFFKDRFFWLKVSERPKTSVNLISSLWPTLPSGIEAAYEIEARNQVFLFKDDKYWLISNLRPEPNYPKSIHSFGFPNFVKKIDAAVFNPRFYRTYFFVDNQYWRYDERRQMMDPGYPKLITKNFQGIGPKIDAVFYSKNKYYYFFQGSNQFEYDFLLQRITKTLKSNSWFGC

Structure (SMILES) | inhibition at 0.1 µM (MMP-14) [%] | inhibition at 5 µM (MMP-14) [%] | IC50 (metalloelastase (MMP-12)) [nM] | inhibition at 5 µM ([1]; @ 5 μM, read-out: percentage inhibition MMP9) [%] | IC50 (gelatinase A (MMP-2)) [nM] | IC50 (MMP-14) [nM] | IC50 [1] [nM]
O=CN(O)C(CCc1ccccc1)CS(=O)(=O)N1CCc2ccccc2C1 (centres unmarked) [Example 1, N-{1-[(3,4-dihydroisoquinolin-2(1H)-ylsulfonyl)methyl]-3-phenylpropyl}-N-hydroxyformamide] |  |  | 27 |  | 95 | > 5000 | > 5000
CC1(C)OC[C@H](C(CS(=O)(=O)N2CCc3ccccc3C2)N(O)C=O)O1 (stereo partly drawn) [Example 2, N-{2-(3,4-dihydroisoquinolin-2(1H)-ylsulfonyl)-1-[(4S)-2,2-dimethyl-1,3-dioxolan-4-yl]ethyl}-N-hydroxyformamide] |  |  | 14 |  | 530 | > 5000 | > 5000
CCCCCC(CS(=O)(=O)N1CCc2ccccc2C1)N(O)C=O (centres unmarked) [Example 3, N-{1-[(3,4-dihydroisoquinolin-2(1H)-ylsulfonyl)methyl]hexyl}-N-hydroxyformamide] |  | 67 | 14 |  | 676 |  | > 5000
O=CN(O)C(CS(=O)(=O)N1CCc2ccccc2C1)C1CC1 (centres unmarked) [Example 4, N-[1-cyclopropyl-2-(3,4-dihydroisoquinolin-2(1H)-ylsulfonyl)ethyl]-N-hydroxyformamide] |  | 29 | 65 |  | 653 |  | > 5000
O=CN(O)C(CS(=O)(=O)N1CCc2ccccc2C1)c1cncnc1 (centres unmarked) [Example 9, N-[2-(3,4-dihydroisoquinolin-2(1H)-ylsulfonyl)-1-pyrimidin-5-ylethyl]-N-hydroxyformamide] |  | 61 | 49 |  | > 5000 |  | > 5000
COc1cc2c(cc1OC)CN(S(=O)(=O)CC(CCc1ccccc1)N(O)C=O)CC2 (centres unmarked) [Example 12, N-(1-{[(6,7-dimethoxy-3,4-dihydroisoquinolin-2(1H)-yl)sulfonyl]methyl}-3-phenylpropyl)-N-hydroxyformamide] |  | 0 | 92 |  | > 5000 |  | > 5000
COc1cc2c(cc1OC)CN(S(=O)(=O)CC([C@H]1COC(C)(C)O1)N(O)C=O)CC2 (stereo partly drawn) [Example 14, N-{2-[(6,7-dimethoxy-3,4-dihydroisoquinolin-2(1H)-yl)sulfonyl]-1-[(4S)-2,2-dimethyl-1,3-dioxolan-4-yl]ethyl}-N-hydroxyformamide] |  | 0 | 41 |  | > 5000 |  | > 5000
O=CN(O)C(CS(=O)(=O)N1CCc2ccc(Cl)cc2C1)C1CCCC1 (centres unmarked) [Example 21, N-{2-[(7-chloro-3,4-dihydroisoquinolin-2(1H)-yl)sulfonyl]-1-cyclopentylethyl}-N-hydroxyformamide] |  | 45 | 19 |  | 103 |  | > 5000
O=CN(O)[C@@H](CS(=O)(=O)N1CCc2ccc(Cl)cc2C1)[C@H]1CCCO1 [Example 22, N-{(1R)-2-[(7-chloro-3,4-dihydroisoquinolin-2(1H)-yl)sulfonyl]-1-[(2R)-tetrahydrofuran-2-yl]ethyl}-N-hydroxyformamide] |  | 0 | 210 |  | 470 |  | > 5000

The next molecules have a lower IC50 (metalloelastase (MMP-12)) than those just listed; values first:

inhibition at 0.1 µM (MMP-14) [%] | inhibition at 5 µM (MMP-14) [%] | IC50 (metalloelastase (MMP-12)) [nM] | inhibition at 5 µM ([1]; @ 5 μM, read-out: percentage inhibition MMP9) [%] | IC50 (gelatinase A (MMP-2)) [nM] | IC50 (MMP-14) [nM] | IC50 [1] [nM] | Structure (SMILES)
 | 36 | 13 |  | > 5000 |  | > 5000 | O=CN(O)C(CS(=O)(=O)N1CCc2ccccc2C1)c1cccnc1 (centres unmarked) [Example 10, N-[2-(3,4-dihydroisoquinolin-2(1H)-ylsulfonyl)-1-pyridin-3-ylethyl]-N-hydroxyformamide]
0 | 80 | 12 |  | 78 |  | > 5000 | CC1(C)OC[C@H](C(CS(=O)(=O)N2Cc3ccccc3C2)N(O)C=O)O1 (stereo partly drawn) [Example 16, N-{2-(1,3-dihydro-2H-isoindol-2-ylsulfonyl)-1-[(4S)-2,2-dimethyl-1,3-dioxolan-4-yl]ethyl}-N-hydroxyformamide]
 | 64 | 10 |  | > 5000 |  | > 5000 | COc1ccc(C(CS(=O)(=O)N2CCc3ccccc3C2)N(O)C=O)cn1 (centres unmarked) [Example 13, N-[2-(3,4-dihydroisoquinolin-2(1H)-ylsulfonyl)-1-(6-methoxypyridin-3-yl)ethyl]-N-hydroxyformamide]
 |  | 9 |  | 323 | 865 | 877 | O=CN(O)C(CCc1ccccc1)CS(=O)(=O)N1Cc2ccccc2C1 (centres unmarked) [Example 6, N-{1-[(1,3-dihydro-2H-isoindol-2-ylsulfonyl)methyl]-3-phenylpropyl}-N-hydroxyformamide]
5 | 83 | 7 | 21 | 91 |  |  | CC(C)(C)OC(=O)N1CCC[C@@H]1[C@@H](CS(=O)(=O)N1CCc2cc(Cl)c(Cl)cc2C1)N(O)C=O (racemic) [Example 44, tert-butyl (2RS)-2-{(1SR)-2-[(6,7-dichloro-3,4-dihydro-isoquinolin-2(1H)-yl)sulfonyl]-1-[formyl(hydroxy)amino]ethyl}pyrrolidine-1-carboxylate]
10 | 81 | 6 |  | 10 |  | > 5000 | CC1(C)OC[C@H](C(CS(=O)(=O)N2CCc3ccc(Cl)cc3C2)N(O)C=O)O1 (stereo partly drawn) [Example 19, N-{2-[(7-chloro-3,4-dihydroisoquinolin-2(1H)-yl)sulfonyl]-1-[(4S)-2,2-dimethyl-1,3-dioxolan-4-yl]ethyl}-N-hydroxyformamide]
13 | 95 | 1.4 |  | 5 |  | > 5000 | CC(C)c1ccc2c(c1)CCN(S(=O)(=O)CC([C@H]1COC(C)(C)O1)N(O)C=O)C2 (stereo partly drawn) [Example 18, N-{1-[(4S)-2,2-dimethyl-1,3-dioxolan-4-yl]-2-[(6-isopropyl-3,4-dihydroisoquinolin-2(1H)-yl)sulfonyl]ethyl}-N-hydroxyformamide]
